Measurements: patent US8828401B2, “Cytotoxic peptides and antibody drug conjugates thereof” (Pfizer Inc., priority 2011, dated 2014)
pIC50: −log10 of the molar value. Where two headings read alike, the source gives them in different places. Starred links: 1 amine or outer side, 2 acyl side, 3 side chain; linkers in the order of their positions; H or OH if unused. Non-standard residues stand in square brackets, D forms with d. Residues, ends and D or L forms follow the SMILES beside them. *: point of attachment. Dolaproine = CO[C@@H]([C@@H]1CCCN1)[C@@H](C)C(=O)O; X5 = O=C([C@@H](N[*:1])C1(c2ccccc2)CC1)[*:2]; X2 = O=C([C@H](N[*:1])C1(c2ccccc2)CC1)[*:2]; Dil = CC[C@H](C)[C@H](NC)[C@@H](CC(=O)O)OC; NMeαMePro = CN1CCC[C@@]1(C)C(=O)*; αMeP = C[C@@]1(C(=O)O)CCCN1; N(CH2CH2)2NH = C1CN(*)CCN1; X13 = c1ccc(C2(CN*)CC2)cc1; NMeAib = CNC(C)(C)C(=O)O; X4 = CN(C)C(C)(C)C(=O)*; NH(propargyl) = C#CCN*; Aib = CC(C)(N)C(=O)O; NHtBu = CC(C)(C)N*

How the values were obtained:
Assay in all cases: In vitro cell assay, MTS cell viability 96 hours after treatment
Type in all cases: cell-based
BT474 (breast cancer) = conditions: geometric mean, cytotoxic peptides, read-out: BT474 GMEAN IC50
Experimental: (§1) Cells were treated with 3-fold serially diluted antibody-drug conjugates or free compounds (i.e., no antibody conjugated to the drug) in duplicate at 10 concentrations. Cell viability was determined by CellTiter 96® AQueous One Solution Cell Proliferation MTS Assay (Promega, Madison Wis.) 96 hours after treatment. Relative cell viability was determined as percentage of untreated control.

N87 (gastric cancer) = conditions: read-out: N87 GMEAN IC50, N87 cells; geometric mean; cytotoxic peptides
Experimental: as §1

[1] = test system: MDA-MB-361-DYT2 (breast cancer); conditions: read-out: MDA-MB-361-DYT2 GMEAN IC50, MDA-MB-361-DYT2 cells; geometric mean; cytotoxic peptides
Experimental: as §1

[2] = Homo sapiens, BT-474, BT474 cells

Row | SMILES | pIC50 (BT474 (breast cancer); [2]) | pIC50 (N87 (gastric cancer)) | pIC50 [1] | pIC50 (BT474 (breast cancer); BT474 cells)
1 | CC[C@H](C)[C@@H]([C@@H](CC(=O)N1CCC[C@H]1[C@H](OC)[C@@H](C)C(=O)N[C@H](CN)Cc1ccccc1)OC)N(C)C(=O)[C@@H](NC(=O)[C@]1(C)CCCN1C)C(C)C [#246] | 8.50 | 7.97 | 8.27 | 
2 | CC[C@H](C)[C@@H]([C@@H](CC(=O)N1CCC[C@H]1[C@H](OC)[C@@H](C)C(=S)N[C@@H](Cc1ccccc1)C(=O)O)OC)N(C)C(=O)[C@@H](NC(=O)[C@@H](NC)C(C)C)C(C)C [#41, N-methyl-L-valyl-N-[(3R,4S,5S)-1-{(2S)-2-[(1R,2R)-3-{[(1S)-1-carboxy-2-phenylethyl]amino}-1-methoxy-2-methyl-3-thioxopropyl]pyrrolidin-1-yl}-3-methoxy-5-methyl-1-oxoheptan-4-yl]-N-methyl-L-valinamide] | 7.53 | 7.48 | 7.29 | 
3 | CC[C@H](C)[C@@H]([C@@H](CC(=O)N1CCC[C@H]1[C@H](OC)[C@@H](C)C(=O)N[C@@H](C(=O)O)C1(c2ccccc2)CC1)OC)N(C)C(=O)[C@@H](NC(=O)C(C)(C)N)C(C)C [#230] (H-[Aib]V[Dil][Dolaproine][X2]-OH) | ≤ 7.00 | 7.05 | 7.15 | 
4 | CC[C@H](C)[C@@H]([C@@H](CC(=O)N1CCC[C@H]1[C@H](OC)[C@@H](C)C(=O)N[C@@H](Cc1ccccc1)C(=O)O)OC)N(C)C(=O)[C@@H](NC(=O)C(C)(C)N(C)C)C(C)C [#229] (X4-V[Dil][Dolaproine]F-OH) | 7.74 | 7.78 | 7.99 | 
5 | CC[C@H](C)[C@@H]([C@@H](CC(=O)N1CCC[C@H]1[C@H](OC)[C@@H](C)C(=O)N[C@@H](Cc1ccccc1)C(=O)OC)OC)N(C)C(=O)[C@@H](NC(=O)C(C)(C)NC)C(C)C [#226] (H-[NMeAib]V[Dil][Dolaproine]F-OMe) | 9.93 | 9.32 | 9.97 | 
6 | CC[C@H](C)[C@@H]([C@@H](CC(=O)N1CCC[C@H]1[C@H](OC)[C@@H](C)C(=S)N[C@@H](Cc1ccccc1)C(=O)OC)OC)N(C)C(=O)[C@@H](NC(=O)C(C)(C)NC)C(C)C [#79, N,2-dimethylalanyl-N-[(3R,4S,5S)-3-methoxy-1-{(2S)-2-[(1R,2R)-1-methoxy-3-{[(2S)-1-methoxy-1-oxo-3-phenylpropan-2-yl]amino}-2-methyl-3-thioxopropyl]pyrrolidin-1-yl}-5-methyl-1-oxoheptan-4-yl]-N-methyl-L-valinamide] | 10.10 | 9.86 | 9.89 | 
7 | CC[C@H](C)[C@@H]([C@@H](CC(=O)N1CCC[C@H]1[C@H](OC)[C@@H](C)C(=O)N[C@H](C(=O)OC)C1(c2ccccc2)CC1)OC)N(C)C(=O)[C@@H](NC(=O)C(C)(C)N)C(C)C [#223] (H-[Aib]V[Dil][Dolaproine][X5]-OMe) | 8.12 | 7.89 | 7.96 | 
8 | CC[C@H](C)[C@@H]([C@@H](CC(=O)N1CCC[C@H]1[C@H](OC)[C@@H](C)C(=S)N[C@@H](Cc1ccccc1)C(=O)O)OC)N(C)C(=O)[C@@H](NC(=O)C(C)(C)NC)C(C)C [#80, N,2-dimethylalanyl-N-[(3R,4S,5S)-1-{(2S)-2-[(1R,2R)-3-{[(1S)-1-carboxy-2-phenylethyl]amino}-1-methoxy-2-methyl-3-thioxopropyl]pyrrolidin-1-yl}-3-methoxy-5-methyl-1-oxoheptan-4-yl]-N-methyl-L-valinamide] | 7.69 | 7.55 | 7.48 | 
9 | CC[C@H](C)[C@@H]([C@@H](CC(=O)N1CCC[C@H]1[C@H](OC)[C@@H](C)C(=S)N[C@@H](Cc1ccccc1)C(=O)OC)OC)N(C)C(=O)[C@@H](NC(=O)[C@@H](NC)C(C)C)C(C)C [#42, N-methyl-L-valyl-N-[(3R,4S,5S)-3-methoxy-1-{(2S)-2-[(1R,2R)-1-methoxy-3-{[(2S)-1-methoxy-1-oxo-3-phenylpropan-2-yl]amino}-2-methyl-3-thioxopropyl]pyrrolidin-1-yl}-5-methyl-1-oxoheptan-4-yl]-N-methyl-L-valinamide] | 9.90 | 9.49 | 9.71 | 
10 | CC[C@H](C)[C@@H]([C@@H](CC(=O)N1CCC[C@H]1[C@H](OC)[C@@H](C)C(=O)N[C@@H](Cc1ccccc1)C(=O)O)OC)N(C)C(=O)[C@@H](NC(=O)[C@]1(C)CCCN1C)C(C)C [#151, 1,2-dimethyl-L-prolyl-N-{(1S,2R)-4-{(2S)-2-[(1R,2R)-3-{[(1S)-1-carboxy-2-phenylethyl]amino}-1-methoxy-2-methyl-3-oxopropyl]pyrrolidin-1-yl}-2-methoxy-1-[(1S)-1-methylpropyl]-4-oxobutyl}-N-methyl-L-valinamide] (NMeαMePro-V[Dil][Dolaproine]F-OH) | 7.07 | 7.21 | 7.07 | 
11 | CC[C@H](C)[C@@H]([C@@H](CC(=O)N1CCC[C@H]1[C@H](OC)[C@@H](C)C(=O)N[C@@H](Cc1ccccc1)C(=O)OC)OC)N(C)C(=O)[C@@H](NC(=O)[C@@]1(F)CCNC1)C(C)C [#173, methyl N-{(2R,3R)-3-[(2S)-1-{(3R,4S,5S)-4-[(N-{[(3R)-3-fluoropyrrolidin-3-yl]carbonyl}-L-valyl)(methyl)amino]-3-methoxy-5-methylheptanoyl}pyrrolidin-2-yl]-3-methoxy-2-methylpropanoyl}-L-phenylalaninate] |  | 10.00 | 10.17 | 10.06
12 | C#CCNC(=O)[C@H](Cc1ccccc1)NC(=O)[C@H](C)[C@@H](OC)[C@@H]1CCCN1C(=O)C[C@@H](OC)[C@H]([C@@H](C)CC)N(C)C(=O)[C@@H](NC(=O)C(C)(C)NC)C(C)C [#241] (H-[NMeAib]V[Dil][Dolaproine]F-{NH(propargyl)}) | 9.44 | 9.41 | 9.31 | 
13 | CC[C@H](C)[C@@H]([C@@H](CC(=O)N1CCC[C@H]1[C@H](OC)[C@@H](C)C(=O)N[C@@H](Cc1ccccc1)C(=O)N1CCNCC1)OC)N(C)C(=O)[C@@H](NC(=O)[C@]1(C)CCCN1C)C(C)C [#245] (NMeαMePro-V[Dil][Dolaproine]F-{N(CH2CH2)2NH}) | 7.93 | 7.48 | 7.50 | 
14 | CC[C@H](C)[C@@H]([C@@H](CC(=O)N1CCC[C@H]1[C@H](OC)[C@@H](C)C(=O)NCCC1C=CC=CC=C1)OC)N(C)C(=O)[C@@H](NC(=O)[C@@]1(C)CCCCN1)C(C)C [#180, (2R)—N-[(2S)-1-{[(3R,4S,5S)-1-{(2S)-2-[(1R,2R)-3-{[2-(cyclohepta-2,4,6-trien-1-yl)ethyl]amino}-1-methoxy-2-methyl-3-oxopropyl]pyrrolidin-1-yl}-3-methoxy-5-methyl-1-oxoheptan-4-yl](methyl)amino}-3-methyl-1-oxobutan-2-yl]-2-methylpiperidine-2-carboxamide] | 9.80 |  | 9.95 | 
15 | CC[C@H](C)[C@@H]([C@@H](CC(=O)N1CCC[C@H]1[C@H](OC)[C@@H](C)C(=O)N[C@@H](Cc1ccccc1)c1nccs1)OC)N(C)C(=O)[C@@H](NC(=O)[C@]1(F)CCNC1)C(C)C [#194, N˜2˜-{[(3S)-3-fluoropyrrolidin-3-yl]carbonyl}-N-[(3R,4S,5S)-3-methoxy-1-{(2S)-2-[(1R,2R)-1-methoxy-2-methyl-3-oxo-3-{[(1S)-2-phenyl-1-(1,3-thiazol-2-yl)ethyl]amino}propyl]pyrrolidin-1-yl}-5-methyl-1-oxoheptan-4-yl]-N-methyl-L-valinamide] | 9.87 |  | 9.70 | 
16 | CC[C@H](C)[C@@H]([C@@H](CC(=O)N1CCC[C@H]1[C@H](OC)[C@@H](C)C(=O)N[C@@H](Cc1ccccc1)C(=O)OC)OC)N(C)C(=O)[C@@H](NC(=O)[C@]1(C)CCCN1)C(C)C [#117, 2-methyl-L-prolyl-N-{(1S,2R)-4-{(2S)-2-[(1R,2R)-3-{[(1S)-1-benzyl-2-methoxy-2-oxoethyl]amino}-1-methoxy-2-methyl-3-oxopropyl]pyrrolidin-1-yl}-2-methoxy-1-[(1S)-1-methylpropyl]-4-oxobutyl}-N-methyl-L-valinamide] (H-[αMeP]V[Dil][Dolaproine]F-OMe) | 10.02 |  | 9.93 | 
17 | CC[C@H](C)[C@@H]([C@@H](CC(=O)N1CCC[C@H]1[C@H](OC)[C@@H](C)C(=O)NCC1(c2ccccc2)CC1)OC)N(C)C(=O)[C@@H](NC(=O)C(C)(C)N)C(C)C [#60, 2-methylalanyl-N-[(3R,4S,5S)-3-methoxy-1-{(2S)-2-[(1R,2R)-1-methoxy-2-methyl-3-oxo-3-{[(1-phenylcyclopropyl)methyl]amino}propyl]pyrrolidin-1-yl}-5-methyl-1-oxoheptan-4-yl]-N-methyl-L-valinamide] (H-[Aib]V[Dil][Dolaproine]-X13) | 9.28 |  | 9.02 | 
18 | CC[C@H](C)[C@@H]([C@@H](CC(=O)N1CCC[C@H]1[C@H](OC)[C@@H](C)C(=O)N[C@@H](Cc1ccccc1)C(=O)NC(C)(C)C)OC)N(C)C(=O)[C@@H](NC(=O)C(C)(C)NC)C(C)C [#144, N,2-dimethylalanyl-N-{(1S,2R)-4-{(2S)-2-[(1R,2R)-3-{[(1S)-1-benzyl-2-(tert-butylamino)-2-oxoethyl]amino}-1-methoxy-2-methyl-3-oxopropyl]pyrrolidin-1-yl}-2-methoxy-1-[(1S)-1-methylpropyl]-4-oxobutyl}-N-methyl-L-valinamide] (H-[NMeAib]V[Dil][Dolaproine]F-NHtBu) | 9.76 |  | 9.76 | 
